Measured values from US7504410B2, “Chk-, Pdk- and Akt-inhibitory pyrimidines, their production and use as pharmaceutical agents” (Schering Aktiengesellschaft, priority 2002, dated 2009).

Target: T1, VEGFR II (KDR) (Homo sapiens, UniProt P35968)
T1 construct: GST; made in house; host or cells: Sf-9 insect cells
Assay: KDR kinase assay (HTRF)
Format: biochemical
Conditions: not given
Description: Recombinant KDR-GST-fusion protein, expressed in insect cells (Sf-9) and purified by Glutathion affinity chrormatography was used as kinase. Alternatively, commercially available GST-KDR-fusion protein (Proqinase, Freiburg i.Brsg., Germany) can be used. As substrate for the kinase reaction the biotinylated copolymer poly-(Glu, Tyr-4:1) which can be purchased e.g. from the company Cisbiointernational (Marcoule, France).
In a black low volume 384 well microtiterplate (Greiner, Frickenhausen, Germany) KDR (enzyme amount depending on lot, adjusted to give an dF of about 300-400) was incubated for 20 min at 22° C. in the presence of different concentrations of test compounds (0 μM and concentrations in the range 0.001-30 μM) in 15 μl assay buffer [50 mM Hepes/NaOH pH7.0, 25 mM MgCl2, 5 mM MnCl2, 0.5 mM sodium ortho-vanadate, 1.0 mM dithiothreitol, 1 μM adenosine-tri-phosphate (ATP), 23.5 μg/ml substrate [biotinylated poly-(Glu, Tyr; 4:1)], 1.5% (v/v) dimethylsulfoxide]. The reaction was stopped by the addition of 5 μl of a solution of the detection reagents [0.3 μg/ml Eu-W1024-labeled antiphosphotyrosine antibody (PT66) (Perkin-Elmer) and 4.125 μg/ml […] (Cisbiointernational, Marcoule, France)] in an aqueous EDTA-solution (250 mM EDTA, 0.1% (w/v) bovine serum albumine in 100 mM HEPES/NaOH pH 7.0).
The resulting mixture was incubated further 2 h at 22° C. to allow the binding of the biotinylated substrate and product to the SA-XL-665 and the EU labeled anti-phosphotyrosine antibody. Subsequently the amount of phosphate incorporated into the substrate was evaluated by resonance energy transfer measurement in a HTRF reader (Discovery, Perkin-Elmer).
The IC50 values are determined from the inhibitor concentration that is necessary to inhibit the phosphate incorporation to 50% of the uninhibited incorporation after removal of the blank reading (EDTA-stopped reaction).

T1 sequence (P35968 20-1356, species assumed): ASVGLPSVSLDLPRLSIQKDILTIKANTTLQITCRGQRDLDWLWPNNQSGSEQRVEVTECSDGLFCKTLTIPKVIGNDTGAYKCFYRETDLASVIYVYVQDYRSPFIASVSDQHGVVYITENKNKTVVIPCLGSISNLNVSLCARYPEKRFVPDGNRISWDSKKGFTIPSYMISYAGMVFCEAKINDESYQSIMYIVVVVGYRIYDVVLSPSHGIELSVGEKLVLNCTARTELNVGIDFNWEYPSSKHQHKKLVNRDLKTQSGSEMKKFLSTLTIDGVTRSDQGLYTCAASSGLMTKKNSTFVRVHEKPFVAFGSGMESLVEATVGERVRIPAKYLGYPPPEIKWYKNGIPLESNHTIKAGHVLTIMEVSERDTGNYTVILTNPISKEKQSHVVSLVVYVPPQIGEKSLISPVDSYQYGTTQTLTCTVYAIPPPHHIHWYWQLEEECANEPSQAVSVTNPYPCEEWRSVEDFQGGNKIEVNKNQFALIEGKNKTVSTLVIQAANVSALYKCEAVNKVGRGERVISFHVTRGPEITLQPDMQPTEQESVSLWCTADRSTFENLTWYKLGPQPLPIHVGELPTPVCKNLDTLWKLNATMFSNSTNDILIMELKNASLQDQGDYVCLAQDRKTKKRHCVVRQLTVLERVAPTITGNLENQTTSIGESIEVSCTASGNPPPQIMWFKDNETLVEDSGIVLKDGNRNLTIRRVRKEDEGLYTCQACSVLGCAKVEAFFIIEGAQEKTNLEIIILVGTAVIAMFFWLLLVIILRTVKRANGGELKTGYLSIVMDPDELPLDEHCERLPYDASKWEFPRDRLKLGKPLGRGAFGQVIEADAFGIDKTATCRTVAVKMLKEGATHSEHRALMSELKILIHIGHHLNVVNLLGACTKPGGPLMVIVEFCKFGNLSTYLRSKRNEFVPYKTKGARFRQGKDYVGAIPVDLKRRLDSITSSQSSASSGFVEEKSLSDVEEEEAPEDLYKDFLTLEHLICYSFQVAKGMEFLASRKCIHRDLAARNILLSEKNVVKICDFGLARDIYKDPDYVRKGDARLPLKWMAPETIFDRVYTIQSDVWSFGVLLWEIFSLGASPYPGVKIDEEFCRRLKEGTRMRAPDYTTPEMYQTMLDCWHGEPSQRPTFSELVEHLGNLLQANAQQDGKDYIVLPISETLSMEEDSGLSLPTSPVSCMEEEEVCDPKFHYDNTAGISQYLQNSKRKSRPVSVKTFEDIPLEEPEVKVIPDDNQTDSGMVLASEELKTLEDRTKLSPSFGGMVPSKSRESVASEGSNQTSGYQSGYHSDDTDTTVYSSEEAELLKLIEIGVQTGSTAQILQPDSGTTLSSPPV

SMILES | IC50
CCN(CCN1CCCCC1)C(=O)Nc1cccc(Nc2ncc(Br)c(NCCc3c[nH]cn3)n2)c1 [Example 389] | 330 nM
O=C1N[C@H](C(=O)NCCCNc2nc(Nc3cccc(NC(=O)N4CCCC4)c3)ncc2Br)CS1 [Example 452] | 9.7 nM
CC(C)CC(=O)NCCCNc1nc(Nc2cccc(NC(=O)N3CCCC3)c2)ncc1Br [Example 473] | 400 nM

Continued, values first:

IC50 | SMILES
32 nM | CN1CC(=O)N(c2cccc(Nc3ncc(Br)c(NCCc4c[nH]cn4)n3)c2)C1=O [Example 395]
740 nM | CCOC(=O)NCCCNc1nc(Nc2cccc(NC(=O)N3CCCC3)c2)ncc1Br [Example 477]
1400 nM | C[C@@H](N)C(=O)NCCCNc1nc(Nc2cccc(NC(=O)N3CCCC3)c2)ncc1Br [Example 512]
2.6 nM | O=C1N[C@H](C(=O)NCCCNc2nc(Nc3cccc(N4C(=O)CNC4=O)c3)ncc2Br)CS1 [Example 535]
10.6 nM | O=C1CC[C@@H](C(=O)NCCCNc2nc(Nc3cccc(N4C(=O)CNC4=O)c3)ncc2Br)N1 [Example 539]
4 nM | CN1CC(=O)N(c2cccc(Nc3ncc(Br)c(NCCCNC(=O)[C@@H]4CSC(=O)N4)n3)c2)C1=O [Example 546]

Target: T2, Chk1 (Homo sapiens, UniProt O14757)
T2 construct: His6 (C); made in house; host or cells: Sf-9 insect cells (baculovirus)
T2 sequence (O14757 1-476): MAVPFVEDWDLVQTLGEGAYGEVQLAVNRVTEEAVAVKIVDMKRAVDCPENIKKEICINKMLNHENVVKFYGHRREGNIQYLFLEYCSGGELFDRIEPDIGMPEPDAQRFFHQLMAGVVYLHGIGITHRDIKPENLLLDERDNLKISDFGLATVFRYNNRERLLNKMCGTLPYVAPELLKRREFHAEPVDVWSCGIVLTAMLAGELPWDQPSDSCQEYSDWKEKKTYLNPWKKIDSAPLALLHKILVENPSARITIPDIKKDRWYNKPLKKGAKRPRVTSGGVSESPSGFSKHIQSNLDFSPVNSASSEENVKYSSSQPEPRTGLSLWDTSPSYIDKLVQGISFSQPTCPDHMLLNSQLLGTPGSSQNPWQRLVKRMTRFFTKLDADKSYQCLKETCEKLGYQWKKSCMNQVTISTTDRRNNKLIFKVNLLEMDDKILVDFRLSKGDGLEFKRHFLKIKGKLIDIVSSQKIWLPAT
Assay: Chk1 kinase assay (SPA)
Format: biochemical
Conditions: read-out: Chk-1 IC50
Description: Recombinant Chk1-His6-fusion protein, expressed in insect cells (Sf-9) and purified by Ni-NTA affinity chromatography was used as kinase. Alternatively, commercially available GST-Chk1-fusion protein (Upstate Biotechnology, Dundee, Scotland) can be used. As substrate for the kinase reaction the biotinylated peptide biotin-Arg-Ser-Gly-Leu-Tyr-Arg-Ser-Pro-Ser-Met-Pro-Glu-Asn-Leu-Asn-Arg-Pro-Arg-OH was used which can be purchased e.g. from the company Biosyntan GmbH (Berlin-Buch, Germany).
Chk1 (200 ng/measurement point) was incubated for 60 min at 22 °C in the presence of different concentrations of test compounds (0 μM and concentrations in the range 0.001-30 μM) in 30 μl assay buffer [50 mM Hepes/NaOH pH7.5, 10 mM MgCl2, 1 mM MnCl2, 0.1 mM sodium ortho-vanadate, 1.0 mM dithiothreitol, 0.5 μM adenosine-tri-phosphate (ATP), 1.9 μM substrate peptide (Biotin-Arg-Ser-Gly-Leu-Tyr-Arg-Ser-ProSer-Met-Pro-Glu-Asn-Leu-Asn-Arg-Pro-Arg-OH), 6 nCi/measurement point ^33P-gamma ATP, 0.008% NP40, 1.5% (v/v) dimethylsulfoxide]. The reaction was stopped by the addition of 20 μl of a suspension of streptavidine coated PVT-SPA-beads (0.15 mg/measurement point, from Amersham Biotech) in an aqueous EDTA/ATP-solution (20 mM EDTA, 50 μM ATP, 1% (v/v) Triton X-100 in PBS).
The resulting mixture was incubated further 16 h at 22° C. to allow the binding of the biotinylated peptide to the streptavidine coated PVT-SPA-beads and to allow the sedimentation of the beads. Subsequently the amount of 33P incorporated into the substrate peptide was evaluated by scintillation measurement in a Topcount NXT (Perkin-Elmer).

IC50 | SMILES
440 nM | Brc1cnc(Nc2cccc(CN3CC=CC3)c2)nc1NCCc1c[nH]cn1 [Example 65]
20 nM | O=C(Cc1ccc(Cl)cc1Cl)NCCCNc1nc(Nc2cccc(NC(=O)N3CCCC3)c2)ncc1Br [Example 699]
300 nM | C#CCOc1nc(Nc2cc(NC(=O)[C@H](N)Cc3ccccc3)cc(NC(=O)N3CCCC3)c2)ncc1Br [Example A16]
200 nM | C#CCOc1nc(Nc2cc(CO)cc(NC(=O)[C@H](N)Cc3ccccc3)c2)ncc1Br [Example A17, (αR)-α-Amino-N-[3-[[5-bromo-4-(prop-2-ynyloxy)pyrimidin-2-yl]amino]-5-(hydroxymethyl)phenyl]benzenepropanamide]
80 nM | C#CCOc1nc(Nc2cc(CO)cc(NCCO)c2)ncc1Br [Example A18, 3-[[5-Bromo-4-(prop-2-ynyloxy)pyrimidin-2-yl]amino]-5-[(2-hydroxyethyl)amino]benzenemethanol]

Target: not listed separately
Assay: PDK-1-dependent activation and subsequent enzymatic activity of AKT2 (SPA)
Format: biochemical, human
Conditions: AKT2 activated by PDK-1 in the assay; read-out: Akt-2 inhibition IC50
Method: PDK-1-dependent activation and subsequent enzymatic activity of AKT2: Purified human AKT2 activity was routinely measured in an assay in which the enzyme was first activated by PDK-1 in the presence of phosphatidylinositol-4,5-bisphosphate (PIP2). Once activated, AKT2-dependent phosphorylation of a peptide substrate was measured by scintillation proximity assay (SPA).
Phospholipid vesicles were prepared as follows: 2.2 mg each of phosphatidylcholine (Sigma Cat # P-1287) and phosphatidylserine (Sigma Cat #P-6641) were transferred to a borosilicate glass test tube and dried down under nitrogen. 1 mg of PIP2 (Biomol Cat #PH-106) was suspended in 9.5 ml of 10 mM HEPES, pH 7.5 and transferred to the dried lipids. The tube was vortexed until a milky suspension was produced. Then the tube was placed in a ice water-jacketed cup horn sonicator (Branson Instruments) and subjected to sonication for 20 min at medium power until a translucent phospholipid vesicle preparation was obtained. Aliquots of the vesicle suspension were frozen at −80 °C until needed.
Assays were performed in 96-well polypropylene V-bottom plates. Incubations were carried out for 2 hr at room temperature. The assay mixture contained in a volume of 60 μL: 15 mM MOPS, pH 7.2, 1 mg/ml bovine serum albumin, 18 mM betaglycerolphosphate, 0.7 mM dithiothreitol, 3 mM EGTA, 10 mM MgOAc, 7.5 (M ATP, 0.2 μCi of [γ-^33P]ATP, 7.5 μM biotinylated peptide substrate (biotin-ARRRDGGGAQPFRPRAATF), 0.5 μL of PIP2-containing phospholipid vesicles, 60 pg of purified recombinant human PDK-1, and 172 ng of purified recombinant human AKT2. Test compounds were added from stock solutions in DMSO. The final concentration of DMSO was 2.5%. Following incubation, 10 μL of the assay mixture was transferred to a 96-well clear-bottom polystyrene plate (Wallac Isoplate) containing 0.33 mg of streptavidin-coated SPA beads (Amersham Cat. # RPNQ0007) suspended in 200 μL of phosphate-buffered saline, pH 7.4, containing 50 mM EDTA and 0.1% Triton X-100. After brief shaking, the SPA beads were allowed to settle to the bottom of the plate overnight at room temperature. […] PDK-1 was added at sub-optimal levels so that the assay could sensitively detect inhibitors of AKT2 activation as well as direct AKT2 kinase inhibitors. The z′-factor for the assay was greater than 0.7.
Phosphorylation was readily observed, however, upon addition of purified activated human AKT1 (purchased from Upstate Biotechnology), independent of the presence or absence of added PDK-1 or PIP2-containing vesicles.

SMILES | IC50
O=C(Nc1cccc(Nc2ncc(Br)c(NCCc3c[nH]cn3)n2)c1)N1CCCC1 [Example 220] | 6 nM
NC(=O)C1(C(=O)NCCCNc2nc(Nc3cccc(NC(=O)[C@@H]4CCCN4)c3)ncc2Br)CC1 [Example 492] | 23 nM

The next lines start with the values.

IC50 | SMILES
24 nM | CC(C)(C(N)=O)C(=O)NCCCNc1nc(Nc2cccc(NC(=O)[C@H](N)Cc3ccccc3)c2)ncc1Br [Example 504]
44 nM | CC(C)(C(N)=O)C(=O)NCCCNc1nc(Nc2cccc(NC(=O)[C@@H](N)c3ccccc3)c2)ncc1Br [Example 521]
19 nM | CC(C)(C(N)=O)C(=O)NCCCNc1nc(Nc2cccc(N3C(=O)CNC3=O)c2)ncc1Br [Example 540]
4 nM | CN1CC(=O)N(c2cccc(Nc3ncc(Br)c(NCCCNC(=O)[C@@H]4CSC(=O)N4)n3)c2)C1=O [Example 546]
